Patent publication US20240140933A1, “OXOINDOLINE COMPOUND FOR THE TREATMENT OF INFLAMMATORY DISEASES OR CANCER” (Hoffmann-La Roche Inc., priority 2021, published 2024)

molecular target: PDHK1 (Homo sapiens (Human), UniProt Q15118); assay: PDHK1 enzymatic assay (AlphaScreen, phosphorylation of PDHE1 S293); assay type: biochemical; details: 1 nM PDHK1, 25 nM PDHE1, 20 μM ATP, 30° C. for 45 minutes
Excerpt: Pyruvate dehydrogenase complex (PDHc) is an enzyme that catalyzes the reaction of pyruvate and a lipoamide to give the acetylated dihydrolipoamide and carbon dioxide. PDHc has three subunits E1, E2 and E3. E1 has 3 serine phosphorylation sites S293, S232, S300. If E1 was phosphorylated, PDH will be inactivated. PDHK can phosphorylate PDH protein (also named PDHE1) in PDH complex (PDC) to inactivate it.

Sequence of PDHK1 (Q15118 29-436): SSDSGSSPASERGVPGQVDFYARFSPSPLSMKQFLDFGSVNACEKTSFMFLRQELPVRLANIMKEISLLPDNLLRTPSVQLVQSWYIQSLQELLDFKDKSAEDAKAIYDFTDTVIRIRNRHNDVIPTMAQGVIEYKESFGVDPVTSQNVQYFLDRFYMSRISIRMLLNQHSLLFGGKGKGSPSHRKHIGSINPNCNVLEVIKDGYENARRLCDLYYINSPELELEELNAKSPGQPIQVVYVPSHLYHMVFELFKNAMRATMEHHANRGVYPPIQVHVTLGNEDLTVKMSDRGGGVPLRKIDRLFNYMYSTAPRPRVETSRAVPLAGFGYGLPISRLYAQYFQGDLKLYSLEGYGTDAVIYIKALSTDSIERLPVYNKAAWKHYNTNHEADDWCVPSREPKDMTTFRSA

| Enzymatic IC50 against PDHK1 [µg/mL] | SMILES |
| --- | --- |
| 0.025 | CCNc1cc(F)cc2c1NC(=O)C2(C)N1CC[C@H](F)[C@@H](Nc2ccc(C#N)nc2)C1 (stereo partly drawn) [Example 48, 5-[[(3S,4S)-1-[7-(ethylamino)-5-fluoro-3-methyl-2-oxo-indolin-3-yl]-4-fluoro-3-piperidyl]amino]pyridine-2-carbonitrile] |
| 0.019 | CCNc1cc(F)cc2c1NC(=O)C2(C)N1CC[C@H](c2ccccc2Oc2ccc(C(N)=O)cc2)[C@@H](NC(C)=O)C1 (stereo partly drawn) [Example 57, 4-[2-[(3R,4R)-3-acetamido-1-[7-(ethylamino)-5-fluoro-3-methyl-2-oxo-indolin-3-yl]-4-piperidyl]phenoxy]benzamide] |
| 0.046 | CCNc1cc(F)cc2c1NC(=O)C2(C)N1CCC[C@@H](Cc2ccc(C(=O)O)cc2)C1 (stereo partly drawn) [Example 5, 4-[[(3S)-1-[7-(ethylamino)-5-fluoro-3-methyl-2-oxo-indolin-3-yl]-3-piperidyl]methyl]benzoic acid] |
| 0.039 | CCNc1cc(F)cc2c1NC(=O)C2(C)N1CCCC(NC(=O)C2CC3(C2)CN(C#N)C3)C1 (stereo in doubt) [Example 37, 2-cyano-N-[(3R)-1-[7-(ethylamino)-5-fluoro-3-methyl-2-oxo-indolin-3-yl]-3-piperidyl]-2-azaspiro[3.3]heptane-6-carboxamide] |
| 0.024 | CCNc1cc(F)cc2c1NC(=O)C2(C)N1CCC[C@@H](Nc2cnc(C#N)c(Cl)c2)C1 (stereo partly drawn) [Example 22, 3-chloro-5-[[(3R)-1-[7-(ethylamino)-5-fluoro-3-methyl-2-oxo-indolin-3-yl]-3-piperidyl]amino]pyridine-2-carbonitrile] |
| 0.019 | CCNc1cc(F)cc2c1NC(=O)C2(C)N1C[C@@H](C)C[C@@H](Nc2ccc(C#N)nc2)C1 (stereo partly drawn) [Example 47, 5-[[(3R,5S)-1-[7-(ethylamino)-5-fluoro-3-methyl-2-oxo-indolin-3-yl]-5-methyl-3-piperidyl]amino]pyridine-2-carbonitrile] |
| 0.020 | CCNc1cc(F)cc2c1NC(=O)C2(C)N1CCC[C@@H](Nc2ccc(C(=O)O)nc2)C1 (stereo partly drawn) [Example 11, 5-[[(3R)-1-[7-(ethylamino)-5-fluoro-3-methyl-2-oxo-indolin-3-yl]-3-piperidyl]amino]pyridine-2-carboxylic acid] |
| 0.03 | CCNc1cc(F)cc2c1NC(=O)C2(C)N1CC[C@H](c2ccccc2Oc2ccc(C#N)cc2)[C@@H](NC(C)=O)C1 (stereo partly drawn) [Example 58, N-[(3R,4R)-4-[2-(4-cyanophenoxy)phenyl]-1-[7-(ethylamino)-5-fluoro-3-methyl-2-oxo-indolin-3-yl]-3-piperidyl]acetamide] |
| 0.062 | CCNc1cc(F)cc2c1NC(=O)C2(C)N1CCC[C@@H](Nc2ccc(C(N)=O)nc2)C1 (stereo partly drawn) [Example 12, 5-[[(3R)-1-[7-(ethylamino)-5-fluoro-3-methyl-2-oxo-indolin-3-yl]-3-piperidyl]amino]pyridine-2-carboxamide] |

More lines, now with the values behind:

| SMILES | Enzymatic IC50 against PDHK1 [µg/mL] |
| --- | --- |
| CCNc1cc(F)cc2c1NC(=O)C2(C)N1CCC[C@@H](NC(=O)c2cc(F)c(O)c(F)c2)C1 (stereo partly drawn) [Example 35, N-[(3R)-1-[7-(ethylamino)-5-fluoro-3-methyl-2-oxo-indolin-3-yl]-3-piperidyl]-3,5-difluoro-4-hydroxy-benzamide] | 0.030 |
| CCNc1cc(F)cc2c1NC(=O)C2(C)N1CCC[C@@](C)(Nc2ccc(C#N)nc2)C1 (stereo partly drawn) [Example 23, 5-[[(3R)-1-[7-(ethylamino)-5-fluoro-3-methyl-2-oxo-indolin-3-yl]-3-methyl-3-piperidyl]amino]pyridine-2-carbonitrile] | 0.049 |
| CCNc1cc(F)cc2c1NC(=O)C2(C)N1CCC[C@@H](Nc2ccc(O)nc2)C1 (stereo partly drawn) [Example 21, 7-(ethylamino)-5-fluoro-3-[(3R)-3-[(6-hydroxy-3-pyridyl)amino]-1-piperidyl]-3-methyl-indolin-2-one] | 0.037 |
| C=CS(=O)(=O)c1ccc(N[C@@H]2CCCN(C3(C)C(=O)Nc4c(NCC)cc(F)cc43)C2)cc1 (stereo partly drawn) [Example 34, 7-(ethylamino)-5-fluoro-3-methyl-3-[(3R)-3-(4-vinylsulfonylanilino)-1-piperidyl]indolin-2-one] | 0.032 |
| CCNc1cc(F)cc2c1NC(=O)C2(C)N1CCC[C@@H](Nc2ccc(C#N)nn2)C1 (stereo partly drawn) [Example 16, 6-[[(3R)-1-[7-(ethylamino)-5-fluoro-3-methyl-2-oxo-indolin-3-yl]-3-piperidyl]amino]pyridazine-3-carbonitrile] | 0.047 |
| CCNc1cc(F)cc2c1NC(=O)C2(C)N1CCC[C@@H](NC(=O)C2CCN(C#N)CC2)C1 (stereo partly drawn) [Example 38, 1-cyano-N-[(3R)-1-[7-(ethylamino)-5-fluoro-3-methyl-2-oxo-indolin-3-yl]-3-piperidyl]piperidine-4-carboxamide] | 0.026 |
| CCNc1cc(F)cc2c1NC(=O)C2(C)N1CCC[C@@H](Nc2ccc(OS(=O)(=O)F)cc2)C1 (stereo partly drawn) [Example 32, 7-(ethylamino)-5-fluoro-3-methyl-2-oxo-3-[(3R)-3-(4-fluorosulfonyloxyanilino)-1-piperidyl]indoline] | 0.135 |
| CCNc1cc(F)cc2c1NC(=O)C2(C)N1CCC[C@@H](Nc2ccc(OS(=O)(=O)F)nc2)C1 (stereo partly drawn) [Example 33, 7-(ethylamino)-5-fluoro-3-methyl-2-oxo-3-[(3R)-3-[(6-fluorosulfonyloxy-3-pyridyl)amino]-1-piperidyl]indoline] | 0.068 |
| CCNc1cc(F)cc2c1NC(=O)C2(C)N1CCC[C@H](Nc2ccc(C(=O)O)nc2)C1 (stereo partly drawn) [Example 10, 5-[[(3S)-1-[7-(ethylamino)-5-fluoro-3-methyl-2-oxo-indolin-3-yl]-3-piperidyl]amino]pyridine-2-carboxylic acid] | 0.059 |
| CCNc1cc(F)cc2c1NC(=O)C2(C)N1CCC[C@@H](Nc2ccc(S(C)(=O)=O)nc2)C1 (stereo partly drawn) [Example 20, 7-(ethylamino)-5-fluoro-3-methyl-3-[(3R)-3-[(6-methylsulfonyl-3-pyridyl)amino]-1-piperidyl]indolin-2-one] | 0.038 |
| CCNc1cc(F)cc2c1NC(=O)C2(C)N1CCC[C@@H](Nc2ccc(C#N)cc2)C1 (stereo partly drawn) [Example 8, 4-[[(3R)-1-[7-(ethylamino)-5-fluoro-3-methyl-2-oxo-indolin-3-yl]-3-piperidyl]amino]benzonitrile] | 0.022 |
| CCNc1cc(F)cc2c1NC(=O)C2(CC)N1CCC[C@@H](N(C(C)=O)c2ccc(C#N)nc2)C1 (stereo partly drawn) [Example 25, N-(6-cyano-3-pyridyl)-N-[(3R)-1-[3-ethyl-7-(ethylamino)-5-fluoro-2-oxo-indolin-3-yl]-3-piperidyl]acetamide] | 0.142 |
| CCNc1cc(F)cc2c1NC(=O)C2(C)N1C[C@H](F)C[C@@H](Nc2ccc(C#N)nc2)C1 (stereo partly drawn) [Example 45, 5-[[(3R,5R)-1-[7-(ethylamino)-5-fluoro-3-methyl-2-oxo-indolin-3-yl]-5-fluoro-3-piperidyl]amino]pyridine-2-carbonitrile] | 0.011 |
| CCNc1cc(F)cc2c1NC(=O)C2(C)N1CCC[C@@H](Nc2ccc(CO)nc2)C1 (stereo partly drawn) [Example 18, 7-(ethylamino)-5-fluoro-3-[(3R)-3-[[6-(hydroxymethyl)-3-pyridyl]amino]-1-piperidyl]-3-methyl-indolin-2-one] | 0.059 |
| CCNc1cc(F)cc2c1NC(=O)C2(C)N1CCC[C@@H](Nc2cccc(OS(=O)(=O)F)c2)C1 (stereo partly drawn) [Example 31, 7-(ethylamino)-5-fluoro-3-methyl-2-oxo-3-[(3R)-3-(3-fluorosulfonyloxyanilino)-1-piperidyl]indoline] | 0.197 |
| CCNc1cc(F)cc2c1NC(=O)C2(C)N1CCC[C@@H](Nc2ccc(S(=O)(=O)F)c(OC)c2)C1 (stereo partly drawn) [Example 28, 4-[[(3R)-1-[7-(ethylamino)-5-fluoro-3-methyl-2-oxo-indolin-3-yl]-3-piperidyl]amino]-2-methoxy-benzenesulfonyl fluoride] | 0.032 |
| CCNc1cc(F)cc2c1NC(=O)C2(C)N1CCC[C@@H](Nc2ccc(C#N)cn2)C1 (stereo partly drawn) [Example 14, 6-[[(3R)-1-[7-(ethylamino)-5-fluoro-3-methyl-2-oxo-indolin-3-yl]-3-piperidyl]amino]pyridine-3-carbonitrile] | 0.007 |
| CCNc1cc(F)cc2c1NC(=O)C2(C)N1CCC[C@@H](Nc2cnc(C#N)nc2)C1 (stereo partly drawn) [Example 17, 5-[[(3R)-1-[7-(ethylamino)-5-fluoro-3-methyl-2-oxo-indolin-3-yl]-3-piperidyl]amino]pyrimidine-2-carbonitrile] | 0.012 |

same assay, conditions: 1 nM PDHK1, 25 nM PDHE1, 20 μM ATP, 30° C. for 45 minutes; read-out: Enzymatic IC50 against PDHK1 (converted)

| IC50 [nM] | SMILES |
| --- | --- |
| 379 | CCNc1cc(F)cc2c1NC(=O)C2(C)N1CCC[C@@H](Cc2ccc(C#N)cc2)C1 (stereo partly drawn) [Example 7, 4-[[(3S)-1-[7-(ethylamino)-5-fluoro-3-methyl-2-oxo-indolin-3-yl]-3-piperidyl]methyl]benzonitrile] |
| 47.3 | CCNc1cc(F)cc2c1NC(=O)[C@@]2(C)N1CC[C@@H](c2ccccc2)[C@@H](C(=O)Nc2ccccc2)C1 [Example 61B, (3R,4R)-1-[(3S)-7-(ethylamino)-5-fluoro-3-methyl-2-oxo-indolin-3-yl]-N,4-diphenyl-piperidine-3-carboxamide] |

| SMILES | IC50 [nM] |
| --- | --- |
| CCNc1cc(F)cc2c1NC(=O)[C@@]2(C)N1CCC[C@@H](Oc2ccc(S(=O)(=O)F)c(OC)c2)C1 [Example 4B, 4-[[(3R)-1-[(3S)-7-(ethylamino)-5-fluoro-3-methyl-2-oxo-indolin-3-yl]-3-piperidyl]oxy]-2-methoxy-benzenesulfonyl fluoride] | 109 |
